Source: ChEMBL document CHEMBL3885881, “DrugMatrix”

Species: Rattus norvegicus
Experiment: DrugMatrix - Regimen: Daily Repeat
Assay type: toxicity, organism-based, Sprague-Dawley
Design: regimen Daily Repeat, gender Male, age 6-8 weeks
Settings: in vivo, po, route oral GAVAGE, […]; for ABSOLUTE BASOPHIL / ABSOLUTE EOSINOPHIL / ABSOLUTE LYMPHOCYTE / ABSOLUTE MONOCYTE / ABSOLUTE SEGMENTED NEUTROPHIL / BASOPHIL / EOSINOPHIL / ERYTHROCYTE COUNT / HEMATOCRIT / LEUKOCYTE COUNT / LYMPHOCYTE / MEAN CORPUSCULAR HEMOGLOBIN / MEAN CORPUSCULAR HEMOGLOBIN CONCENTRATION / MEAN CORPUSCULAR VOLUME / NEUTROPHIL / NUCLEATED RED BLOOD CELLS / PLATELET COUNT / HEMOGLOBIN: tissue Blood; for ALANINE AMINOTRANSFERASE / ALBUMIN / ALKALINE PHOSPHATASE / ASPARTATE AMINOTRANSFERASE / BLOOD UREA NITROGEN / CARBON DIOXIDE / CHLORIDE / CHOLESTEROL / CREATINE PHOSPHOKINASE / CREATININE / LACTATE DEHYDROGENASE / LIPASE / PHOSPHORUS / POTASSIUM / SODIUM / TOTAL BILIRUBIN / URIC ACID: tissue Plasma
[1] = 0 mg/kg, 72 h, dose level Control, time 3 day
[2] = 0 mg/kg, 120 h, dose level Control, time 5 day
[3] = 0 mg/kg, dose level Control, time 28 day
[4] = 10 mg/kg, 72 h, dose level High, time 3 day
[5] = 10 mg/kg, 120 h, dose level High, time 5 day

O=C(O)Cc1ccccc1Nc1c(Cl)cccc1Cl [DICLOFENAC]
ABSOLUTE BASOPHIL [1]: 0 CELLS/uL | ABSOLUTE EOSINOPHIL [1]: 0 CELLS/uL | ABSOLUTE LYMPHOCYTE [1]: 8493 CELLS/uL | ABSOLUTE MONOCYTE [1]: 127 CELLS/uL | ABSOLUTE SEGMENTED NEUTROPHIL [1]: 896.67 CELLS/uL | BASOPHIL [1]: 0% | EOSINOPHIL [1]: 0% | ERYTHROCYTE COUNT [1]: 5.53 x10E6/uL | HEMATOCRIT [1]: 34.07% | LEUKOCYTE COUNT [1]: 9.52 x10E3/uL | LYMPHOCYTE [1]: 89.17% | MEAN CORPUSCULAR HEMOGLOBIN [1]: 24.07 pg | MEAN CORPUSCULAR HEMOGLOBIN CONCENTRATION [1]: 39.03 G/DL | MEAN CORPUSCULAR VOLUME [1]: 61.62 fL | NEUTROPHIL [1]: 9.5% | NUCLEATED RED BLOOD CELLS [1]: 0.17 /100WBC | PLATELET COUNT [1]: 1054.17 x10E3/uL | ALANINE AMINOTRANSFERASE [1]: 77.67 u/L | ALBUMIN [1]: 4.08 G/DL | ALKALINE PHOSPHATASE [1]: 404.5 u/L | ASPARTATE AMINOTRANSFERASE [1]: 83.17 u/L | BLOOD UREA NITROGEN [1]: 14.33 mg/dL | CARBON DIOXIDE [1]: 33.17 mmol/L | CHLORIDE [1]: 101 MEQ/L | CHOLESTEROL [1]: 76.33 mg/dL | CREATINE PHOSPHOKINASE [1]: 184.5 u/L | CREATININE [1]: 0.13 mg/dL | LACTATE DEHYDROGENASE [1]: 130.33 u/L | LIPASE [1]: 11 u/L | PHOSPHORUS [1]: 9.27 mg/dL | POTASSIUM [1]: 6.26 MEQ/L | SODIUM [1]: 143.57 MEQ/L | TOTAL BILIRUBIN [1]: 0.18 mg/dL | URIC ACID [1]: 1.38 mg/dL | ABSOLUTE BASOPHIL [2]: 0 CELLS/uL | ABSOLUTE EOSINOPHIL [2]: 0 CELLS/uL | ABSOLUTE LYMPHOCYTE [2]: 8546.17 CELLS/uL | ABSOLUTE MONOCYTE [2]: 49.5 CELLS/uL | ABSOLUTE SEGMENTED NEUTROPHIL [2]: 554.33 CELLS/uL | NUCLEATED RED BLOOD CELLS [2]: 0.17 /100WBC | CARBON DIOXIDE [2]: 33.17 mmol/L | CREATININE [2]: 0.18 mg/dL | LACTATE DEHYDROGENASE [2]: 111.5 u/L | LIPASE [2]: 9.5 u/L | URIC ACID [2]: 0.78 mg/dL | BASOPHIL [3]: 0.42% | EOSINOPHIL [3]: 0.58% | ERYTHROCYTE COUNT [3]: 8.06 x10E6/uL | HEMATOCRIT [3]: 48.44% | HEMOGLOBIN [3]: 16.34 G/DL | LEUKOCYTE COUNT [3]: 13.04 x10E3/uL | LYMPHOCYTE [3]: 85.12% | MEAN CORPUSCULAR HEMOGLOBIN [3]: 20.26 pg | MEAN CORPUSCULAR HEMOGLOBIN CONCENTRATION [3]: 33.74 G/DL | MEAN CORPUSCULAR VOLUME [3]: 60.1 fL | NEUTROPHIL [3]: 11.28% | PLATELET COUNT [3]: 1226 x10E3/uL | ALANINE AMINOTRANSFERASE [3]: 28.6 u/L | ALBUMIN [3]: 3.94 G/DL | ALKALINE PHOSPHATASE [3]: 254.6 u/L | ASPARTATE AMINOTRANSFERASE [3]: 67.8 u/L | BLOOD UREA NITROGEN [3]: 10.4 mg/dL | CHLORIDE [3]: 104.6 MEQ/L | CHOLESTEROL [3]: 57.6 mg/dL | CREATINE PHOSPHOKINASE [3]: 224.8 u/L | CREATININE [3]: 0.4 mg/dL | PHOSPHORUS [3]: 10.66 mg/dL | POTASSIUM [3]: 6.58 MEQ/L | SODIUM [3]: 148.6 MEQ/L | TOTAL BILIRUBIN [3]: 0.24 mg/dL | ABSOLUTE BASOPHIL [4]: 0 CELLS/uL | ABSOLUTE EOSINOPHIL [4]: 0 CELLS/uL | ABSOLUTE LYMPHOCYTE [4]: 9500.33 CELLS/uL | ABSOLUTE MONOCYTE [4]: 68 CELLS/uL | ABSOLUTE SEGMENTED NEUTROPHIL [4]: 1065 CELLS/uL | BASOPHIL [4]: 0% | EOSINOPHIL [4]: 0% | ERYTHROCYTE COUNT [4]: 5.04 x10E6/uL | HEMATOCRIT [4]: 30.83% | HEMOGLOBIN [4]: 12.23 G/DL | LEUKOCYTE COUNT [4]: 10.63 x10E3/uL | LYMPHOCYTE [4]: 90% | MEAN CORPUSCULAR HEMOGLOBIN [4]: 24.3 pg | MEAN CORPUSCULAR HEMOGLOBIN CONCENTRATION [4]: 39.67 G/DL | MEAN CORPUSCULAR VOLUME [4]: 61.23 fL | NEUTROPHIL [4]: 9% | NUCLEATED RED BLOOD CELLS [4]: 0 /100WBC | PLATELET COUNT [4]: 988.67 x10E3/uL | ALANINE AMINOTRANSFERASE [4]: 55.67 u/L | ALBUMIN [4]: 3.43 G/DL | ALKALINE PHOSPHATASE [4]: 322 u/L | ASPARTATE AMINOTRANSFERASE [4]: 70.67 u/L | BLOOD UREA NITROGEN [4]: 11.67 mg/dL | CARBON DIOXIDE [4]: 33.33 mmol/L | CHLORIDE [4]: 101 MEQ/L | CHOLESTEROL [4]: 79.33 mg/dL | CREATINE PHOSPHOKINASE [4]: 148 u/L | CREATININE [4]: 0.12 mg/dL | LACTATE DEHYDROGENASE [4]: 105 u/L | LIPASE [4]: 9.33 u/L | PHOSPHORUS [4]: 10 mg/dL | POTASSIUM [4]: 6.12 MEQ/L | SODIUM [4]: 145.77 MEQ/L | TOTAL BILIRUBIN [4]: 0.17 mg/dL | URIC ACID [4]: 1.47 mg/dL | ABSOLUTE BASOPHIL [5]: 0 CELLS/uL | ABSOLUTE EOSINOPHIL [5]: 0 CELLS/uL | ABSOLUTE LYMPHOCYTE [5]: 5111.33 CELLS/uL | ABSOLUTE MONOCYTE [5]: 0 CELLS/uL | ABSOLUTE SEGMENTED NEUTROPHIL [5]: 1222 CELLS/uL | BASOPHIL [5]: 0% | EOSINOPHIL [5]: 0% | ERYTHROCYTE COUNT [5]: 4.43 x10E6/uL | HEMATOCRIT [5]: 26.73% | HEMOGLOBIN [5]: 10.7 G/DL | LEUKOCYTE COUNT [5]: 6.33 x10E3/uL | LYMPHOCYTE [5]: 76.67% | MEAN CORPUSCULAR HEMOGLOBIN [5]: 24.2 pg | MEAN CORPUSCULAR HEMOGLOBIN CONCENTRATION [5]: 40.03 G/DL | MEAN CORPUSCULAR VOLUME [5]: 60.47 fL | NEUTROPHIL [5]: 23.33% | NUCLEATED RED BLOOD CELLS [5]: 0.67 /100WBC | PLATELET COUNT [5]: 1253.67 x10E3/uL | ALANINE AMINOTRANSFERASE [5]: 24 u/L | ALBUMIN [5]: 2.23 G/DL | ALKALINE PHOSPHATASE [5]: 221.33 u/L | ASPARTATE AMINOTRANSFERASE [5]: 56 u/L | BLOOD UREA NITROGEN [5]: 17.33 mg/dL | CARBON DIOXIDE [5]: 31.67 mmol/L
